Source: patent US20040235922A1, “Compositions and methods for inducing adipose tissue cell death” (priority 2003, published 2004)
“Also recorded” adds a separate entry of the source. Where a name gives a salt, the structure may show the parent alone. Marks after values point to notes of the source that are not given here.

Key:
[1] = test system: Epi/Par fat pads (white adipose tissue); test: Adipose tissue apoptosis assay, % DNA fragmentation (Example 1); format: in vivo, mice; details: 21 days
Procedure: (§1) Animals: Five week old male (n=20) and female (n=20) ICR mice (Harlan Research Laboratories, Indianapolis, Ind.) were allowed to acclimate for one week prior to the experiment start date. Animals were housed singly in suspended wire cages and were provided ground rodent chow (ProLab® RMH 2500; Purina Mills, St. Louis, Mo.) and water ad libitum. Ambient room temperature was maintained and the light/dark cycle was 0600/1800 hours, respectively. Animals were cared for in accordance with the Guide for the Care and Use of Laboratory Animals (Institute of Laboratory Animal Resources Commission on Life Sciences National Research Council. Guide for the Care and Use of Laboratory Animals. National Academy of Sciences, 1996). Prior to the start of the study, animals were briefly anesthetized with isofluorane and an IPPT-200 transponder (programmable ID and temperature, BMDS, Seaford, Del.) was implanted subcutaneously between the scapulae.
(§2) Materials: Test articles included clenbuterol (Sigma Chemical Company, St. Louis, Mo., item # C5423) and ractopamine hydrochloride—Paylean® 9 (Elanco Animal Health, Indianapolis, Ind.). Clenbuterol is available as a pure product, and ractopamine is readily available as a type A medicated article. Paylean® 9 contains about 20 g ractopamine hydrochloride per kilogram in a ground corncob base. In order to achieve doses of 200 and 800 ppm it was necessary to add about […] of product per kilogram of diet. Control and clenbuterol diets were prepared with about 80 g of alphacel, which is a diluent used to mimic the effect of the corncob in the ractopamine product. The dose of clenbuterol used in this experiment was similar to those used in previous experiments with mice (Agbenyega E T, and Wareham A C. Effect of clenbuterol on skeletal muscle atrophy in mice induced by the glucocorticoid dexamethasone. Comp Biochem Physiol Comp Physiol 1992;102:141-145, Rothwell N. J., and Stock M J. Modification of body composition by clenbuterol in normal and dystrophic (mdx) mice. Biosci Rep 1985;5:755-760, Hyltander A, Svaninger G, and Lundholm K. The effect of clenbuterol on body composition in spontaneously eating tumour-bearing mice. Biosci Rep 1993;13:325-331, Hayes A, and Williams DA. Long-term clenbuterol administration alters the isometric contractile properties of skeletal muscle from normal and dystrophin-deficient mdx mice. Clin Exp Pharmacol Physiol 1994;21:757-765, Dupont-Versteegden EE. Exercise and clenbuterol as strategies to decrease the progression of muscular dystrophy in mdx mice. J Appl Physiol 1996;80:734-741).
DNA Isolation and Apoptosis Assay: Only the Epi and Par fat pads had sufficient tissue for the apoptosis assay. Apoptosis was assayed in two ways: DNA isolated from fat tissue was separated into two fractions: fragmented and genomic DNA. First, the fragmented DNA was run on an agarose gel in order to identify a ladder pattern of internucleosomal DNA degradation that is characteristic of apoptosis. Second, apoptosis was quantified as the ratio of fragmented- to total-DNA, multiplied by 100. Briefly, approximately 50 mg of the Epi or Par white adipose tissue was homogenized in lysis buffer (10 mM Tris-HCL, pH 8.0, 10 mM EDTA, pH 8.0; 0.5% Triton X-100) and centrifuged at 14,000× g for 15 min to separate fragmented DNA from genomic DNA. The supernatant, containing fragmented DNA, was extracted with phenol-chloroform-isoamyl alcohol (25:24:1), and the DNA was precipitated by adding polyacryl carrier (Molecular Research Center, Inc., Cincinnati, Ohio) and ethanol. Genomic (non-fragmented) DNA was extracted from the pellet with DNAzol and the polyacryl carrier. DNA in each fraction was quantified by the PicoGreen method (Molecular Probes, Inc., Eugene, Oreg.) and fluorescence was measured using a SpectroMax Gemini (Molecular Devices).
Statistical Analysis: Analysis of variance (SAS) was used to determine significance of treatment and gender effects. […]

male and female ICR mice = test: 21 day oral (diet) treatment of mice: selected tissue weights, fat pads, BAT, muscle, organs (Example 1); format: in vivo; details: 21 days; for BAT tissue weight, mean / Biceps tissue weight, mean / Epi/Par tissue weight, mean / Ing tissue weight, mean / Rp tissue weight, mean: male and female mice; for Par weight, mean: females; for Epi weight, mean: males
Procedure: (§3) The effects of clenbuterol, a β2-AR agonist, and ractopamine, a β1/β2-AR agonist, on growth, adiposity and adipose tissue apoptosis in male and female mice have been tested by feeding diets containing control, 200 ppm clenbuterol, or 200 or 800 ppm ractopamine. Food intake (FI) was measured daily; body weight (BW) and temperatures (BT) were measured on days 0, 3, 7, 10, 14, 17, and 20. On day 21 mice were sacrificed, body composition was determined using PIXImus densitometry, and muscle and adipose tissues were collected. There were no treatment effects on BT, FI, BW, feed efficiency or body composition. Retroperitoneal (Rp) and epididymal/parametrial (Epi/Par) fat pad masses were reduced in both 800 ppm ractopamine (40±3 and 207±20 mg, respectively) and clenbuterol (35±7 and 211±22 mg) treated mice compared to control (66±8 and 319±30 mg, p<0.05). Brown adipose tissue (BAT) mass was greater (p<0.05) in clenbuterol treated mice compared to other treatments. Adipose tissue apoptosis (% DNA fragmentation) was increased in Epi/Par fat pads in clenbuterol (5.2+1.1%) and 800 ppm ractopamine (4.1±0.8%) treated mice compared to control (1.7+0.4%, p<0.05).
as §1
as §2, with “1996;80:734-741). […]” for “1996;80:734-741).”

[2] = 21 day oral (diet) treatment of mice: body weight, food intake, feed efficiency, body temperature, body composition by PIXImus densitometry (Example 1); format: in vivo; details: 21 days, ICR mice
Procedure: as §3, §1, §2
Daily Observations: Food intake was measured daily, while body weight and body temperatures were measured on days 0, 3, 7, 10, 14, 17, and 20 at approximately the same time of day (1300 hours) during the treatment period. […]

cardiac myocytes = details: via β1-AR stimulation; cited from earlier work
adipocytes = details: leptin administration; cited from earlier work
[3] = 200 ppm clenbuterol, 800 ppm ractopamine in diet, p<0.05, hydrochloride

CC(CCc1ccc(O)cc1)NCC(O)c1ccc(O)cc1 (racemic) [Ractopamine, ractopamine hydrochloride]
Percent DNA fragmentation (apoptosis) in the Epi/Par fat pad compared to control [1, 3]: significant increase in apoptosis | Adipose tissue apoptosis (% DNA fragmentation) in Epi/Par fat pads ([1]; 800 ppm in diet, mice, control 1.7±0.4%): 4.1±0.8% | DNA fragmentation in retroperitoneal or inguinal fat pads ([1]; diet, mice): Neither clenbuterol nor ractopamine treatments increased | Rp and Epi/Par fat pad weights compared to control (male and female ICR mice; [3]): reduced; also recorded: decreased | BAT tissue weight, mean (male and female ICR mice; 200 ppm in diet): .096 | Biceps tissue weight, mean (male and female ICR mice; 200 ppm in diet): .128 | Epi/Par tissue weight, mean (male and female ICR mice; 200 ppm in diet): .295 | Ing tissue weight, mean (male and female ICR mice; 200 ppm in diet): .230 | Rp tissue weight, mean (male and female ICR mice; 200 ppm in diet): .058 | BAT tissue weight, mean (male and female ICR mice; 800 ppm in diet): .095 | Biceps tissue weight, mean (male and female ICR mice; 800 ppm in diet): .158 | Epi/Par tissue weight, mean (male and female ICR mice; 800 ppm in diet): .207 | Ing tissue weight, mean (male and female ICR mice; 800 ppm in diet): .176 | Rp tissue weight, mean (male and female ICR mice; 800 ppm in diet): .039 | Retroperitoneal (Rp) fat pad mass (male and female ICR mice; 800 ppm in diet, mice, control 66±8 mg): 40 ± 3 mg | Epididymal/parametrial (Epi/Par) fat pad mass (male and female ICR mice; 800 ppm in diet, mice, control 319±30 mg): 207 ± 20 mg | Muscle mass / muscle weight, body protein or fat content (male and female ICR mice; diet, ICR mice): no effect | Par weight, mean (male and female ICR mice; 200 ppm in diet): .22^b | Par weight, mean (male and female ICR mice; 800 ppm in diet): .22^b | Epi weight, mean (male and female ICR mice; 200 ppm in diet): .36^a | Epi weight, mean (male and female ICR mice; 800 ppm in diet): .19^b | Cumulative Feed Intake ([2]; 200 ppm in diet): 5.92 g | Densitometry Bone Mineral Content ([2]; 200 ppm in diet): 0.67 g | Densitometry Fat ([2]; 200 ppm in diet): 3.00 g | Densitometry Lean ([2]; 200 ppm in diet): 25.63 g | Feed Efficiency ([2]; 200 ppm in diet): 15.8 | Final Body Weight ([2]; 200 ppm in diet): 31.4 g | Weight Gain ([2]; 200 ppm in diet): 8.25 g | Cumulative Feed Intake ([2]; 800 ppm in diet): 6.39 g | Densitometry Bone Mineral Content ([2]; 800 ppm in diet): 0.67 g | Densitometry Fat ([2]; 800 ppm in diet): 3.01 g | Densitometry Lean ([2]; 800 ppm in diet): 27.42 g | Feed Efficiency ([2]; 800 ppm in diet): 16.6 | Final Body Weight ([2]; 800 ppm in diet): 31.5 g | Weight Gain ([2]; 800 ppm in diet): 8.32 g | Effect on body temperature, food intake, body weight, feed efficiency, body composition ([2]; diet, hydrochloride): not significantly affected; also recorded: Neither clenbuterol nor ractopamine affected

NC[C@H](O)c1ccc(O)c(O)c1 [norepinephrine]
Apoptosis of cardiac myocytes (cardiac myocytes): induce apoptosis

leptin: leptin, administration shown in previous experiments to increase apoptosis of adipocytes
Apoptosis of adipocytes (adipocytes): increase apoptosis
